Drawing on patent US7732596B2, “Fused heterocycle derivative, medicinal composition containing the same, and medicinal use thereof” (Kissei Pharmaceutical Co., Ltd., priority 2004, dated 2010), this text covers IC50 for 3 compounds.

The target in one assay is T1, human SGLT1 (Homo sapiens, UniProt P13866).
T1 construct: expressed in transfected cells
T1 sequence (P13866 1-664): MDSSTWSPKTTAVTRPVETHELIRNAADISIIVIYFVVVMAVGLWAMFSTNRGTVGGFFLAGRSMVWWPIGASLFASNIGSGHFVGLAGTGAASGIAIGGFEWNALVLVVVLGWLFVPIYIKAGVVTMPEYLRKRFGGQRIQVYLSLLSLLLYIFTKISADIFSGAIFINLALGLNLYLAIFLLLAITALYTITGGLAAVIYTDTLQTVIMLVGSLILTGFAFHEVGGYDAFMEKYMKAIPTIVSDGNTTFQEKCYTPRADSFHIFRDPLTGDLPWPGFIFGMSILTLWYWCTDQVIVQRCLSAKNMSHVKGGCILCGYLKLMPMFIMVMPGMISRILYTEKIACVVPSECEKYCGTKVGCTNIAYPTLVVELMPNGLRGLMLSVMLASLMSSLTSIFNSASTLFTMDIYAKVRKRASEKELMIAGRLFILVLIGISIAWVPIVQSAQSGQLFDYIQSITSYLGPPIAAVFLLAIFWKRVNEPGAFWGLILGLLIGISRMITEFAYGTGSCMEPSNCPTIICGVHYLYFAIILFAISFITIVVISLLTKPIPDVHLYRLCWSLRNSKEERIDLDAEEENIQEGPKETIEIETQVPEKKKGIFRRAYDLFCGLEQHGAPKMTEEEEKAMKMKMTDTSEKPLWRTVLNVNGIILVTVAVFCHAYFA
The assay can be described thus: Assay for inhibitory effects on human SGLT1 activity (uptake of methyl-α-D-glucopyranoside in CS1-5-11D cells). It counts as cell-based. To be noted: CHO-K1 cells stably expressing human SGLT1 (CS1-5-11D), 1 mM 14C-α-MG uptake, 37° C., 1 hour. The procedure:
Assay for Inhibitory Effects on Human SGLT1 Activity
1) Cloning and Construction of the Vector Expressing Human SGLT1
The cDNA library was prepared for PCR amplification by reverse transcription from total RNA deprived from human small intestine (Ori gene) using oligo-dT as a primer. Using this cDNA library as a template, the DNA fragment coding 1 to 2005 bp of human SGLT1 (ACCESSION: M24847), which was reported by Hediger et al., was amplified by PCR method and inserted into the multi-cloning site of pcDNA3.1 (−) (Invitrogen). The DNA sequence inserted was perfectly matched to the previously reported sequence.
2) Establishment of Cell Line Stably Expressing Human SGLT1
The expression vector of human SGLT1 was digested by Sca I into a linear DNA. The linear DNA was transfected into CHO-K1 cells by means of lipofection (Effectene Transfection Reagent: QIAGEN). Neomycin resistant cell lines were selected by culture in the medium containing G418 (1 mg/mL, LIFE TECHNOLOGIES), and then the activity against the uptake of methyl-α-D-glucopyranoside was measured by the method described below. […] CS1-5-11D cells were cultured in the presence of G418 at 200 μg/mL. […]
CS1-5-11D cells were seeded into a 96-well culture plate at a density of 3×10^4 cells/well and cultured for 2 days, and were used in the uptake assay. […] Radioactivity was measured by means of micro-scintillation counter TopCount (Packard). […]

The next assay has as its target T2, human SGLT2 (Homo sapiens, UniProt P31639).
T2 construct: expressed in transfected cells
T2 sequence (P31639 1-672): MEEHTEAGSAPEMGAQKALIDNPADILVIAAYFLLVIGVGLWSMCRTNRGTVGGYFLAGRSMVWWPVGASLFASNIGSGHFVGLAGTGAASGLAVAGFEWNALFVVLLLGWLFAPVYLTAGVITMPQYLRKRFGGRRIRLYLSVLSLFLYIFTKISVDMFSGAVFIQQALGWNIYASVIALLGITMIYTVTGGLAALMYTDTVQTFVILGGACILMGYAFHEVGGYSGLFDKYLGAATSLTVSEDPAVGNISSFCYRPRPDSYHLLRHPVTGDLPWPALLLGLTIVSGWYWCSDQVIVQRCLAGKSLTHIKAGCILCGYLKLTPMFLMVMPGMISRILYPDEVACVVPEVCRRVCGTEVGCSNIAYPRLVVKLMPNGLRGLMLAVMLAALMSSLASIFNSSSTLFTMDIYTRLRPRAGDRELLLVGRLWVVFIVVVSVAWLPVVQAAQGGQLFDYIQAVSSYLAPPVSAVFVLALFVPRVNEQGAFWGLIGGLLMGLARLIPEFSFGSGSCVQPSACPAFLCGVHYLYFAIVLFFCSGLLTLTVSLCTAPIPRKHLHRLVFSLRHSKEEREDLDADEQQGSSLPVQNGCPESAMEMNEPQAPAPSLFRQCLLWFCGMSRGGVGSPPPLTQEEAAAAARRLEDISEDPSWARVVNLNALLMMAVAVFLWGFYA
Put plainly: Assay for inhibitory effects on human SGLT2 activity (uptake of methyl-α-D-glucopyranoside in CS2-5E cells). It counts as cell-based. As to conditions: CHO-K1 cells stably expressing human SGLT2 (CS2-5E), 1 mM 14C-α-MG uptake, 37° C., 1 hour. The procedure:
Assay for Inhibitory Effects on Human SGLT2 Activity 1) Cloning and Construction of the Vector Expressing Human SGLT2 The cDNA library was prepared for PCR amplification by reverse transcription from total RNA deprived from human kidney (Ori gene) using oligo-dT as a primer. Using this cDNA library as a template, the DNA fragment coding 2 to 2039 bp of human SGLT2 (ACCESSION: M95549, M95299), which was reported by R. G. Wells et al., was amplified by PCR method and inserted into the multi-cloning site of pcDNA3.1 (−) (Invitrogen). The DNA sequence inserted was perfectly matched to the previously reported sequence. 2) Establishment of Cell Line Stably Expressing Human SGLT2 The expression vector of human SGLT2 was digested by Sca I into a linear DNA. The linear DNA was transfected into CHO-K1 cells by means of lipofection (Effectene Transfection Reagent: QIAGEN). Neomycin resistant cell lines were selected by culture in the medium containing G418 (1 mg/mL, LIFE TECHNOLOGIES), and then the activity against the uptake of methyl-α-D-glucopyranoside was measured by the method described below. […] CS2-5E cells were cultured in the presence of G418 at 200 μg/mL. 3) Measurement of the Inhibitory Activity Against the Uptake of Methyl-α-D-glucopyranoside (α-MG) CS2-5E cells were seeded into a 96-well culture plate at a density of 3×10^4 cells/well and cultured for 2 days, and were used in the uptake assay. A mixture of non-labeled (Sigma) and ^14C-labeled α-MG (Amersham Pharmacia Biotech) was added to the uptake buffer (pH 7.4; containing 140 mM sodium chloride, 2 mM potassium chloride, 1 mM calcium chloride, 1 mM magnesium chloride, […] and 5 mM tris(hydroxymethyl)aminomethane) at the final concentration of 1 mM. […] Radioactivity was measured by means of micro-scintillation counter TopCount (Packard). One hundred % was set to the difference between the uptake in the control group and the basal uptake, and the uptake of methyl α-D-glucopyranoside at each drug concentration were calculated. […]

pIC50: −log10 of the molar value.

By pIC50 is commonly meant −log10 of the IC50, conventionally taken in molar units. High values mean a small IC50, low ones a large IC50. For the compound `OC[C@H]1O[C@@H](c2cc3c(CCc4ccccc4)cccc3s2)[C@H](O)[C@@H](O)[C@@H]1O` [Example 1, 2-(β-D-Glucopyranosyl)-4-(2-phenylethyl)benzo[b]thiophene], the pIC50 against human SGLT1 was 6.66; at human SGLT2, 7.24.

`OC[C@H]1O[C@@H](c2cc3cccc(CCc4ccccc4)c3s2)[C@H](O)[C@@H](O)[C@@H]1O` [Example 2, 2-(β-D-Glucopyranosyl)-7-(2-phenylethyl)benzo[b]thiophene] showed a pIC50 against human SGLT2 of 6.89.

In turn, `Cc1ccc(Cc2cccc3cc([C@@H]4O[C@H](CO)[C@@H](O)[C@H](O)[C@H]4O)sc23)cc1` [Example 3, 2-(β-D-Glucopyranosyl)-7-(4-methylbenzyl)benzo[b]thiophene] had a pIC50 at human SGLT2 of 8.70.
